Measured values published in patent US9969715B2, “Compounds useful for treating cancer” (ABIVAX, priority 2012, dated 2018).

Columns and labels:
human PBMC = experiment: Toxicity assay under normal cell culture conditions (MTS), PBMC; assay type: cell-based; conditions: for PBMC tox.: 50% tox. at (μM) av: human PBMC, RPMI+10% FBS+IL-2, 72 h incubation, MTS
Procedure: (§1) Toxicity Assays (Under Normal Cell Culture Conditions):
(§2) Compounds were prepared as for the invasion assay, and then added to either MDA-MB231-luc-D3H2LN cells (2000/well) under normal culture conditions (MEM+10% FBS), or human PBMC (75000/well, in RPMI+10% FBS+IL-2) in standard 96-well tissue culture plates. After 72 h incubation, a standard MTS assay was performed according to the manufacturer's instructions (Promega Ref. G3581). Compounds were tested at various concentrations (concentration-response curves) in order to determine the concentrations at which 50% toxicity is obtained.

[1] = tested on: MDA-MB231-luc-D3H2LN cells; experiment: Toxicity assay under normal cell culture conditions (MTS), MDA cells; assay type: cell-based, human; conditions: for MDA tox: 50% tox. at (μM) av: MDA-MB231-luc-D3H2LN cells, MEM+10% FBS, 72 h incubation, MTS
Procedure: (§3) In order to detect possible toxic effects, all compounds are tested in parallel in a viability assay. The viability assay is performed in parallel on serum-starved cells (as in the invasion assay) vs. cells under normal culture conditions (10% FBS).
as §1, §2

[2] = tested on: MDA-MB231-luc-D3H2LN cells; experiment: Invasion of MDA-MB231-D3H2LN cells into collagen (example 15 = procedure 2, 48 h drug pre-incubation); assay type: cell-based; conditions: for IC50: concentration giving 50% of the anti-invasive effect of 10 μM Y-27632, 48 h pre-incubation, 24 h with 5% FBS, read-out: MDA: Inhib. of invasion: 0.5 × eff. of 10 μM Y-27632 at (μM) av
Procedure: Effect of Drug Compounds on Invasion of MDA-MB231-D3H2LN Cells into Collagen
Preparation of cells at the bottom of a collagen gel: Cells are suspended in a liquid collagen solution (4° C.), distributed into BSA-coated wells, and then collected at the bottom of the wells by centrifugation. The collagen is then solidified by incubation at 37° C. The BSA coating improves the adhesion of the collagen gel.
Pre-treatment with the compounds to be tested: Concentrated drug solutions are then added on top of the collagen, and cells are pre-incubated for 48 h with the drugs at low serum conditions (0.025% FBS).
Stimulation of invasion: Medium with 5% FBS is then added in order to stimulate invasion of the cells into the collagen gel.
(§4) Viability assay, fixation and staining: Following another 24 h incubation, an MTS assay is performed directly on the cells in the collagen. Then, cells are fixed and nuclei are stained.
Analysis: Finally, plates are analyzed using an automated microscope. Fluorescent beads that have been included into the BSA coating serve to detect the bottom of the wells. Pictures of the stained nuclei are taken at the same level (0 μm) as well as 25 μm and 50 μm above.
Negative control: No drug (just DMSO at equivalent concentration). Positive control: 10 μM Y-27632. To avoid edge effects, cells are added only to the 60 central wells B2-G11; lines A and H receive only collagen without cells (blank for the MTS assay) columns 1 and 12 remain free. Each drug is tested at least in triplicate. The positive and negative controls should be tested in several triplicates at different positions on each plate. Typical plate map (−=negative control, +=positive control, 1-12=12 different test conditions, i. e. different drug compounds or concentrations):
Preparation of 4× concentrated drug solutions in MEM+0.1% FBS+2% Lutrol E-400+0.8% DMSO: Mix each 620 μl MEM+0.1% FBS+2% Lutrol E-400 with each 4 μl DMSO+each 1 μl of the 50 mM compound stock solutions (yielding […] and 0.8% DMSO). If the desired final compound concentration is <5 μM, then further dilute in MEM+0.1% FBS+0.8% DMSO. Negative control: MEM+0.1% FBS+2% Lutrol E-400+0.8% DMSO without any drug. Preparation of the positive control: Mix 4.5 ml MEM+0.1% FBS+2% Lutrol E-400+[…] with 36 μl 5 mM Y-27632 (freshly thawed aliquot) (yielding 40 μM).
add each 33 μl/well of the 4× concentrated drug solutions in MEM+0.1% FBS+2% Lutrol E-400+0.8% DMSO to the corresponding wells (yields 1× concentrated drugs in MEM+0.025% FBS+0.5% Lutrol E-400+0.2% DMSO final)
incubate 48 h at 37° C./5% CO2
incubate 24 h at 37° C./5% CO2
for each well, calculate the mean invasion distance of the counted cells: (25 μm×number of cells at 25 μm+50 μm×number cells at 50 μm)/sum of cells at 0, 25 and 50 μm
invalidate any replicate with a CV≥50% (compound to be re-tested, or assay to be repeated if CV≥50% for the untreated negative control or the compound Y-27632-treated positive control). Y27632 is a selective inhibitor of the Rho-associated protein kinase p160ROCK of the following formula
validate the assay only if the mean invasion distance of the cells treated with 10 μM Y-27632 (positive control) is decreased by ≥40% as compared to the untreated negative control
(§5) Final analysis: Determine the concentration at which a given compound has 50% of the anti-invasive effect of the positive control (10 μM Y-27632). Determine the toxicity (=loss of viability) of the compound under these conditions.
Here, invasion (into collagen) is the concentration of the compound necessary to reach 50% of the inhibition effect compared to 10 μM Y-27632.
Standard operating procedure 2 is exactly the same as the procedure as described in example 15.

[3] = tested on: MDA-MB231-luc-D3H2LN cells; experiment: Viability (MTS) assay on the cells in collagen under invasion assay conditions; assay type: cell-based, human; conditions: loss of viability at the concentration giving 0.5 × effect of 10 μM Y-27632, invasion assay conditions
Procedure: as §4, §3
Viability Assay: MTS Assay:
add each 33 μl/well of the MTS reagent, incubate 3-4 h at 37° C./5% CO2
read absorbance at 490 nm (proportional to the viability)
calculate the background-corrected signals by subtracting the means of the background signals in absence of cells from the corresponding signals in presence of cells
normalize the background-corrected signals with respect to the mean signal of the negative controls (no drug) (viabilities are thus expressed in “% of control”)
as §5

hERG channel = biological target: T1, hERG channel (Homo sapiens, UniProt Q12809); experiment: hERG channel inhibition (electrophysiology, hERG-transfected HEK293 cells); assay type: cell-based; conditions: for % hERG inhibition in transfected HEK (n = 3) at 1 μM av: 1 μM compound; for % hERG inhibition in transfected HEK (n = 3) at 10 μM av: 10 μM compound
T1 construct: host or cells: HEK293
Procedure: Performed by Porsolt & Partners (Z. A. de Glatigné, 53940 Le Genest-Saint-Isle, France). Briefly, each 3 hERG-transfected HEK293 cells were superfused with the compounds at 1 and 10 μM, and the hERG channel current was measured by electrophysiology, as described by Crumb et al., J. Pharmacol. Exp. Ther. 2000.

[4] = 1 vs C88 (112), 3 vs 583, 4 vs 585

T1 sequence (Q12809 whole entry): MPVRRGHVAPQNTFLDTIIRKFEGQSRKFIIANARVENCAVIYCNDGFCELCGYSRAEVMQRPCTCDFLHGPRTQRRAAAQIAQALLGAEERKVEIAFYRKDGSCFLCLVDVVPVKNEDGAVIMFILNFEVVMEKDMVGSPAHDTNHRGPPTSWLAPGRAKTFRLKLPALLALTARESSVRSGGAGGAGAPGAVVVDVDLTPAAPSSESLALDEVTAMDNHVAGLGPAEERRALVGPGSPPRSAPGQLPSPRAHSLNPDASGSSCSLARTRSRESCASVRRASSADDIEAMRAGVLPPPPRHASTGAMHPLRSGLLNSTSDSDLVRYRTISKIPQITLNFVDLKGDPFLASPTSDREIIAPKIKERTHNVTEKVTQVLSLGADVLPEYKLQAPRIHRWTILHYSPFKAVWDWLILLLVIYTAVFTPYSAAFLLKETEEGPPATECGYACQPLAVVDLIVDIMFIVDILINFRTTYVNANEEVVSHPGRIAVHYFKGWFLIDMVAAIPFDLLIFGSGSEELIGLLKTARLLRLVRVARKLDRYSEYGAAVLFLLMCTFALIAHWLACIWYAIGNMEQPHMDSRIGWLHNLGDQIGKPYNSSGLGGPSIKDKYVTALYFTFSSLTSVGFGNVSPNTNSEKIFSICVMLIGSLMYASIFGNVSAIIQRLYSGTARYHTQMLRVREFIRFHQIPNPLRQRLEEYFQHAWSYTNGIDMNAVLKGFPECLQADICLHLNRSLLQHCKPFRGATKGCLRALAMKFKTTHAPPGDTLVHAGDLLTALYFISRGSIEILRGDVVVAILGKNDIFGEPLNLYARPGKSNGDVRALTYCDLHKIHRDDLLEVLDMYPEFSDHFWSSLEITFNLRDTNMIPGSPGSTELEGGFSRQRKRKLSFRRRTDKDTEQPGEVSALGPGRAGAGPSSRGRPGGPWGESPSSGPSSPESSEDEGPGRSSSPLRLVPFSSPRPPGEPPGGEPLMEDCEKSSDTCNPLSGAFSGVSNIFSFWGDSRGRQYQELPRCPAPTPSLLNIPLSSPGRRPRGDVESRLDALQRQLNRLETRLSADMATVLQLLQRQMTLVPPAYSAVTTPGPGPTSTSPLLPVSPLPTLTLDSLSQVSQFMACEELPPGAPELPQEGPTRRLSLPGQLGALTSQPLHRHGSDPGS

Row | SMILES | IC50 [2] | PBMC tox.: 50% tox. at (μM) av (human PBMC) | MDA tox: 50% tox. at (μM) av [1] | (+ MDA tox. under these cond.) % tox [3] | % hERG inhibition in transfected HEK (n = 3) at 1 μM av (hERG channel) | % hERG inhibition in transfected HEK (n = 3) at 10 μM av (hERG channel) | toxicity on PBMC compared to comparative compound (in words) (human PBMC; [4]) | toxicity on MDA-MB231 compared to comparative compound (in words) [1, 4] | invasiveness inhibition compared to comparative compound (in words) ([2]; 1 vs C88 (112), 4 vs 585) | hERG inhibition compared to comparative compound (in words) (hERG channel; [4])
1 | O=C(Nc1ccncc1)c1cccc(Nc2cccc(S(=O)(=O)NCCCN3CCCCC3)c2)c1 [Compound 9, 3-((3-(N-(3-(piperidin-1-yl)propyl)sulfamoyl)phenyl)amino)-N-(pyridin-4-yl)benzamide] | 0.28 µM | 36 µM | 44 µM | <10% | 5% | 50% | – | – | – | –
2 | O=C(NCCCN1CCCC1)c1cccc(Nc2cccc(C(=O)Nc3ccncc3)c2)c1 [Compound 4, N-(pyridin-4-yl)-3-((3-((3-(pyrrolidin-1-yl)propyl)carbamoyl)phenyl)amino)benzamide] | 0.21 µM | 42 µM | 54 µM | <10% | 6% | 59% | less toxic | less toxic | more potent | less hERG inhibition
3 | CCN(CC)CCCNC(=O)c1cccc(Nc2cccc(C(=O)Nc3ccccn3)c2)c1 [Compound 11, N-(3-(diethylamino)propyl)-3-((3-(pyridin-2-ylcarbamoyl)phenyl)amino)benzamide] | > 2 µM | 47 µM | 44 µM | – | 64% | 87% | – | – | – | –
4 | CCN(CC)CCCNC(=O)c1cccc(Nc2cccc(C(=O)Nc3ccncc3)c2)n1 [Compound 35, N-(3-(diethylamino)propyl)-6-((3-(pyridin-4-ylcarbamoyl)phenyl)amino)picolinamide] | 0.55 µM | 128 µM | 59 µM | <10% | 4% | 30% | – | – | – | –
5 | CN1CCN(CCCNC(=O)c2ccnc(Nc3cccc(C(=O)Nc4ccncc4)c3)c2)CC1 [Compound 34] | 0.4 µM | >100 µM | 98 µM | <10% | – | – | – | – | – | –
6 | CN(C(=O)c1cccc(Nc2cccc(C(=O)NCCCN3CCCCC3)c2)c1)c1ccncc1 [Compound 21, N-methyl-3-((3-((3-(piperidin-1-yl)propyl)carbamoyl)phenyl)amino)-N-(pyridin-4-yl)benzamide] | 2.05 µM | >100 µM | >100 µM | <10% | – | – | – | – | – | –
7 | CN(C(=O)c1cccc(Nc2cccc(S(=O)(=O)NCCCN3CCCCC3)c2)c1)c1ccncc1 [Compound 24, N-methyl-3-((3-(N-(3-(piperidin-1-yl)propyl)sulfamoyl)phenyl)amino)-N-(pyridin-4-yl)benzamide] | 3.55 µM | ≥100 µM | >100 µM | <10% | – | – | – | – | – | –
8 | CCN(CC)CCCNC(=O)c1ccnc(Nc2cccc(C(=O)Nc3ccncc3)c2)c1 [Compound 33, N-(3-(diethylamino)propyl)-2-((3-(pyridin-4-ylcarbamoyl)phenyl)amino) isonicotinamide] | 2.13 µM | 130 µM | 118 µM | <10% | – | – | – | – | – | –

Second part, led by results:

Row | IC50 [2] | SMILES | PBMC tox.: 50% tox. at (μM) av (human PBMC) | MDA tox: 50% tox. at (μM) av [1] | (+ MDA tox. under these cond.) % tox [3] | % hERG inhibition in transfected HEK (n = 3) at 1 μM av (hERG channel) | % hERG inhibition in transfected HEK (n = 3) at 10 μM av (hERG channel) | toxicity on PBMC compared to comparative compound (in words) (human PBMC; [4]) | toxicity on MDA-MB231 compared to comparative compound (in words) [1, 4] | invasiveness inhibition compared to comparative compound (in words) ([2]; 1 vs C88 (112), 4 vs 585) | hERG inhibition compared to comparative compound (in words) (hERG channel; [4])
9 | 0.25 µM | O=C(NCCCN1CCOCC1)c1cccc(Nc2cccc(/C=C/c3ccncc3)c2)c1 [Compound 583, reference compound] | 18 µM | 21 µM | <10% | 36% | 74% | – | – | – | –
10 | 0.3 µM | O=C(NCCCN1CCCC1)c1cccc(Nc2cccc(/C=C/c3ccncc3)c2)c1 [Compound 585, reference compound] | 9 µM | 10 µM | <10% | 42% | 77% | – | – | – | –
11 | 3.25 µM | CCN(CC)CCCNC(=O)c1cccc(Nc2cc(C(=O)Nc3ccncc3)ccn2)n1 [Compound 43, N-(3-(diethylamino)propyl)-6-((4-(pyridin-4-ylcarbamoyl)pyridin-2-yl)amino)picolinamide] | >100 µM | >100 µM | <10% | – | – | – | – | – | –
12 | 0.3 µM | CN1CCN(CCCNC(=O)c2cccc(Nc3cc(C(=O)Nc4ccncc4)ccn3)c2)CC1 [Compound 51, 2-((3-((3-(4-methylpiperazin-1-yl)propyl)carbamoyl)phenyl)amino)-N-(pyridin-4-yl)isonicotinamide] | >100 µM | ≥100 µM | <10% | – | – | – | – | – | –
13 | 1.88 µM | O=C(NCCCN1CCCC1)c1cccc(Nc2cc(C(=O)Nc3ccncc3)ccn2)c1 [Compound 50, N-(pyridin-4-yl)-2-((3-((3-(pyrrolidin-1-yl)propyl)carbamoyl)phenyl)amino) isonicotinamide] | >100 µM | ≥100 µM | <10% | – | – | – | – | – | –
